Measurements from a melting point compilation (Tetko et al.; mined from patent text by program, amines drawn as free bases though some values may be those of a salt).

`Cc1ccccc1C1=C(c2cccc(OCc3ccccc3)c2)OS(=O)(=O)CC1` gave a melting point of 257 to 259 °C.
`Cc1noc(C)c1S(=O)(=O)Nc1ccc(Cl)cc1` showed a melting point of 144 °C.
With `CC(C)[C@H](NC(=O)N(C)Cc1ccccn1)C(=O)N[C@@H](Cc1ccccc1)C[C@H](O)[C@H](Cc1ccccc1)NC(=O)[C@@H](NC(=O)N(C)Cc1ccccn1)C(C)C` the melting point was 92 to 96 °C.
In the case of `COC(=O)C(C)(C)OCC#Cc1cc(C(F)(F)F)ccc1NS(=O)(=O)c1ccc2c(c1)OCCN2C`, the melting point was 98 to 100 °C.
For `CC(=O)NC1CC(n2cc(C=CBr)c(=O)[nH]c2=O)OC1CBr` (stereo unspecified), the melting point was 178 to 180 °C.
Molecule `N#Cc1ccc(C(=O)c2ccccc2S)cc1` has a melting point of 98 to 100 °C.
Molecule `COc1ccc(-c2nc(C(=O)N3CCOCC3)sc2-c2ccc(OC)cc2)cc1` has a melting point of 118 to 122 °C.
Molecule `O=c1c2c(Br)cc(Br)cc2n(Cc2ccccc2)c(=O)n1Cc1ccccc1` has a melting point of 169 to 172 °C.
In the case of `COc1cc(N(C)C)c(Cl)cc1C(=O)NC1CCN(Cc2ccc(Cl)cc2)C1` (stereo unspecified), the melting point was 172 to 173 °C.
Molecule `NCCNC(c1ccccc1)c1ccccc1` has a melting point of 23 to 24 °C.
In the case of `C[C@@H]1CN(CCCn2c3ccc(O)cc3c3c4c(c(-c5c(Cl)cccc5Cl)cc32)C(=O)NC4=O)C[C@H](C)N1`, the melting point was 160 to 165 °C.
In the case of `COc1ccc(N2CCOCC2)c2sc(-c3nc4ccccc4[nH]3)nc12`, the melting point was 284 to 286 °C.
Molecule `O=CN1CC2Oc3ccccc3OC2C1` (stereo unspecified) has a melting point of 207 to 208 °C.
Work on `Cc1ccc(-n2c(-c3sc(Nc4ccccc4)nc3C)nc3ccccc3c2=O)cc1` yielded a melting point of 256 to 257 °C.
With `CCOC1c2ccccc2-c2[nH]c(=O)c(=O)[nH]c21` (stereo unspecified) the melting point was > 300 °C.
`CC(C)OP(=O)(COCCOc1nc(N)nc(N)c1C=O)OC(C)C` gave a melting point of 225 to 227 °C.
In the case of `Nc1nc(NC2Cc3ccccc3C2)nc2c1ncn2C1OC(CO)C(O)C1O` (stereo unspecified), the melting point was 129 to 132 °C.
Molecule `CCNC(=O)c1cc(N(C)C)ccc1[Si](C)(C)C` has a melting point of 141 to 143 °C.
For `Oc1ccc2c(c1)OCC(c1ccc(C(F)(F)F)cc1)C2c1ccc(OCCN2CCCCC2)cc1` (stereo unspecified), the melting point was 117 to 119 °C.
For `O=C(O)c1cccc2c1CC(c1csc(-c3ccncc3)n1)C(=O)N2` (stereo unspecified), the melting point was > 250 °C.
In the case of `COc1ccc2[nH]c(C(C)C)c(C=C3SC(=S)N(CC(=O)O)C3=O)c2c1`, the melting point was 255 to 260 °C.
`Cc1noc(NS(=O)(=O)c2ccccc2-c2ncccn2)c1C` showed a melting point of 160 to 162 °C.
Work on `N#Cc1cc(-c2ccccc2)[nH]c1Sc1ccccc1N` yielded a melting point of 159 to 160 °C.
In the case of `O=C(Nc1ccccc1C(F)(F)F)c1ccccc1`, the melting point was 146 °C.
With `CCCCCCCCCc1cc(C=CC(=O)N2CCN(c3ccc(NC(=N)c4cccs4)cc3)CC2)cc(CCCCCCCCC)c1O` the melting point was 103 to 105 °C.
`Cc1cc(Br)cc(C)c1NC(=O)C(C)Br` (stereo unspecified) showed a melting point of 187 to 189 °C.
With `CC(C)c1nc(N)c(N)c(=O)[nH]1` the melting point was 198 to 200 °C.
With `COC(=O)CCC#Cc1ccc(O)c(CCC(=O)OC)n1` the melting point was 119 to 121 °C.
`CCc1ccc(OCc2cccc(NC(=O)CCC(=O)OC)c2)cc1OC` showed a melting point of 69 to 70 °C.
With `N#CCCc1oc(/C=C/c2ccccc2)nc1-c1ccccc1` the melting point was 117 to 118 °C.
In the case of `CCOC(=O)c1c(C(=O)OC)c(O)c2cc(OC)c(OC)c(OC)c2c1-c1ccc(OC)c(OC)c1`, the melting point was 157 to 159 °C.
`COc1ccccc1C1(O)C(=O)Nc2cc(Cl)c(Cl)cc21` (stereo unspecified) gave a melting point of 245 to 246 °C.
In the case of `O=C(C1CCN(c2ccncc2)CC1)N1CCCN(S(=O)(=O)c2ccc3ccccc3c2)CC1`, the melting point was 178 to 180 °C.
For `COc1c(-c2ccc(O)c(O)c2)oc2cc(O)c(CC=C(C)CCC=C(C)C)c(O)c2c1=O`, the melting point was 98 to 99 °C.
`Nc1nc(N)nc(C2CC3CCC2C3)n1` (stereo unspecified) showed a melting point of 216 to 217 °C.
Molecule `COc1cc(OC)nc(NC(=O)NS(=O)(=O)c2c([N+](=O)[O-])ccc3c2CCC3)n1` has a melting point of 162 to 172 °C.
With `Nc1cc(Br)cc(Br)c1O` the melting point was 175 to 176 °C.
In the case of `COc1ccc(NN)cc1F`, the melting point was 46 to 50 °C.
`COc1ccc(C2CCN(C(=O)/C(=N/O)C(N)=O)CC2)cc1OC1CCCC1` gave a melting point of 109 to 111 °C.
`Cc1ccccc1C(=O)Nc1ccc(C(=O)N2CCc3cnoc3-c3ccccc32)cc1` showed a melting point of 257 to 260 °C.
`Oc1ccc(Br)cc1C(O)c1ccc2ccccc2c1` (stereo unspecified) showed a melting point of 115 to 117 °C.
`Nc1nc(-c2ccc(F)cc2)c(CC(=O)O)s1` gave a melting point of 267 to 268 °C.
Work on `Cc1noc2cccc(OCC3CO3)c12` (stereo unspecified) yielded a melting point of 51 to 53 °C.
`CC(C(=O)NCC(=O)OCc1ccccc1)N1CCN(CC(=O)OC(C)(C)C)CCN(CC(=O)OC(C)(C)C)CCN(CC(=O)OC(C)(C)C)CC1` (stereo unspecified) gave a melting point of 116 to 117 °C.
`Cc1ccc(COc2ccc(C=C3CCCCC3=O)cc2)cc1` gave a melting point of 148 to 149 °C.
`COCC(=O)NNC1=Nc2sc(Cl)cc2C(c2ccccc2[N+](=O)[O-])=NC1` showed a melting point of 198 to 200 °C.
In the case of `CCOC(=O)CNC(=O)c1oc2cc(-c3ccc(Cn4c(C)nc5ccccc54)cc3)ccc2c1C`, the melting point was 184 to 186 °C.
Molecule `CCCCCCCCNC(=O)Cc1c(C)cc(C(C)(C)C)c(O)c1C` has a melting point of 101 to 104 °C.
`CN1Cc2cc3ccc4c(c3c(-c3ccc5c(c3)OCO5)c2C1=O)OCO4` gave a melting point of 242 to 244 °C.
In the case of `Cc1nn(-c2cccnc2)c2nc3cc(F)c(F)cc3c(Cl)c12`, the melting point was 192 to 194 °C.
Work on `O=C1c2c(-c3ccccc3)noc2CCC1CN1CCOCC1` (stereo unspecified) yielded a melting point of 140 to 141 °C.
In the case of `O=c1cc(-c2ccc(O)c(F)c2)oc2ccccc12`, the melting point was 275 to 276 °C.
Molecule `CC(C)(C(=O)O)c1ccc(O[Si](C)(C)C(C)(C)C)cc1` has a melting point of 78 to 80 °C.
`CCCCc1nc2c(N)nc3cc(-c4ccccc4OCCC)ccc3c2n1CC(C)C` showed a melting point of 174 to 176 °C.
Molecule `Cc1cc(CNC(=O)c2cc(-c3ccc(C(C)(C)C)cc3)n(Cc3ccccc3)n2)ccc1OC(C)(C)C(=O)O` has a melting point of 88 °C.
Work on `OC(CNC1CC1)COc1ccc(-c2nccs2)cc1` (stereo unspecified) yielded a melting point of 100 to 102 °C.
With `COC(=O)c1cc(C(C)(C)C)c(O[Si](C)(C)Oc2c(C(C)(C)C)cc(C(=O)OC)cc2C(C)(C)C)c(C(C)(C)C)c1` the melting point was 197 to 198 °C.
Molecule `N#CN=C(Nc1ccc([N+](=O)[O-])cc1O)Nc1ccccc1Cl` has a melting point of 163 to 164 °C.
For `COc1nc2ccccc2nc1NC(=O)N1CCN(c2ccccc2)CC1`, the melting point was 147 to 149 °C.
For `COC(=O)[C@H](c1ccccc1Cl)N1CCc2sc(OC(=O)c3cccnc3)cc2C1`, the melting point was 92 to 94 °C.
For `Cc1cccc(C)c1-c1nc2ccccc2n2cncc12`, the melting point was 115 to 125 °C.
For `CCCc1nc(C(C)(C)O)c(-c2nnn[nH]2)n1Cc1ccc(-c2ccccc2C(=O)C(=O)O)cc1`, the melting point was 169 to 170 °C.
In the case of `CCCOc1cc(CCCOc2c(CC(=O)O)cccc2OC)n(Cc2ccc(Cl)cc2)n1`, the melting point was 131 to 132 °C.
Molecule `CC(C)[C@H](NC(=O)Cc1csc(N(C)C)n1)C(=O)N[C@@H](Cc1ccccc1)C[C@H](O)[C@H](Cc1ccccc1)NC(=O)Cc1cncs1` has a melting point of 162 to 165 °C.
Molecule `CCc1cc(OCc2ccc(-c3ccccc3-c3nnn(C(c4ccccc4)(c4ccccc4)c4ccccc4)n3)cc2)c2nc(OC(C)C)c(Cl)cc2n1` has a melting point of 179 to 183 °C.
For `COc1ccc2c(c1)C(=O)CC1C2CCC2(C)C(O[Si](C)(C)C(C)(C)C)CCC12` (stereo unspecified), the melting point was 159 to 160 °C.
`O=S(=O)(c1ccccc1)N1CCC(C(=NCCc2ccccc2)c2ccc(F)cc2)CC1` gave a melting point of 123 to 126 °C.
For `CC(C)N1C(=O)NC(c2cccnc2)c2cc3c(cc21)OCO3` (stereo unspecified), the melting point was 172 to 174 °C.
`Cc1cc(Oc2ncc(C(F)(F)F)cc2Cl)n[nH]1` showed a melting point of 93 to 95 °C.
`CCOC(=O)C1=Cc2cc(-c3ccc(C)cc3)ccc2OC1C` (stereo unspecified) showed a melting point of 82 to 84 °C.
For `CCOC(=O)c1cnn2c(-c3ccc(CC)cc3)ccnc12`, the melting point was 101 to 103 °C.
Work on `N#Cc1cc(C2=NOC(c3cc(Cl)cc(Cl)c3)(C(F)(F)F)C2)ccc1F` (stereo unspecified) yielded a melting point of 136 to 139 °C.
In the case of `Nc1cc(=O)n(Cc2ccc(Cl)c(Cl)c2)[nH]1`, the melting point was 159 °C.
`CCCS(=O)(=O)N=C(NC)NCCSCc1[nH]cnc1C` gave a melting point of 73 to 74 °C.
Work on `CC(C)(C)[Si](C)(C)Oc1cc(Cl)cc(C(O)(C#CC2CC2)C(F)(F)F)c1N` (stereo unspecified) yielded a melting point of 125 to 126 °C.
`COCc1cc(-c2ncc3[nH]c4cccc(Cc5ccccc5Cl)c4c3c2COC)no1` gave a melting point of 178 to 180 °C.
`CNc1c2oc3ccccc3c2nn1C` gave a melting point of 154 to 156 °C.
`CCn1cc(CC(=O)O)c(OCCCc2cn(-c3ccc(C(F)(F)F)cn3)nc2C(C)C)n1` gave a melting point of 99 to 100 °C.
In the case of `Cc1cc(C)c2c(n1)[nH]c(=O)c1ccccc12`, the melting point was 276 to 278 °C.
With `O=c1[nH]c2cc3ccccc3cc2nc1-c1cc(O)c(O)c([N+](=O)[O-])c1` the melting point was > 300 °C.
In the case of `CCN(CC)CC(=O)Nc1ccc(C2=NN=C(C)Cc3cc4c(cc32)OCO4)cc1`, the melting point was 157 to 158 °C.
With `CC(C)(C)NC(=O)Nc1nc2nc(N)ncc2cc1-c1ccccc1` the melting point was > 250 °C.
`CCOC(=O)c1ccc2c(c1)C(C)(Cl)C(=S)N2` (stereo unspecified) showed a melting point of 205 to 207 °C.
Molecule `COc1ccc(/C=C/C(=O)c2cccc(O)c2)cc1OC` has a melting point of 138 to 139 °C.
For `CC(=O)Nc1cc(C)c(C)cc1OC(C)=O`, the melting point was 156 to 158 °C.
`CCN1CCN(Cc2nc3sc4c(c3c(=O)n2-c2ccccc2Cl)CCCC4)CC1` showed a melting point of 140 to 142 °C.
Molecule `Cc1ccc(-c2[nH]nc(COCCCO[N+](=O)[O-])c2-c2ccc(S(N)(=O)=O)cc2)cc1` has a melting point of 62 °C.
In the case of `CCOP(=O)(OCC)C(CCc1cc(C)nc2cc(OC(=O)c3ccccc3)nn12)P(=O)(OCC)OCC`, the melting point was 56 to 57 °C.
`COC(=O)Cc1cccc(CC(=O)OC)c1[N+](=O)[O-]` showed a melting point of 144 to 145 °C.
`O=C(CN1C(=O)CC1S(=O)(=O)c1ccccc1)NCCCCCCc1ccc(Cl)cc1` (single isomer, unassigned; (-)) gave a melting point of 106 to 109 °C.
With `CNc1nc(-c2ccccc2)c(-c2nc3ccccc3c(=O)n2-c2cccc(C)c2)s1` the melting point was 186 to 187 °C.
Work on `CCOC(=O)CNC(=O)C1(CC)CCCCCCC1` yielded a melting point of 65 to 67 °C.
`COc1cccc(C2=C(C#N)C(c3cccc4nsnc34)c3c[nH]nc3N2)c1` (stereo unspecified) gave a melting point of 220 °C.
Work on `COc1cccc(-c2c(Cl)cccc2Cl)c1OC` yielded a melting point of 49 to 50 °C.
`CCc1ncnc(NC2CCc3cc(OC)ccc3C2)c1Cl` (stereo unspecified) showed a melting point of 70 to 71 °C.
For `CCSC1CCC2C3CCC4=CC(=O)C=CC4(C)C3(F)C(O)CC12C` (stereo unspecified), the melting point was 196 to 197 °C.
